Assay results from patent publication US6737041B1, “Non-ozone depleting vapocoolants” (University of Cincinnati, priority 1993, dated 2004).

Experiments:
[1] = test system: skin (site on the subject's forearm); assay: Study 2: minimum skin temperature after spraying coolant for 3 seconds from 12 inches; assay type: in vivo, human; conditions: spray time 3 seconds; for Minimum temperature for site A, MEAN ± SD / Minimum temperature for site A: site A (forearm); for Minimum temperature for site A, MEAN ± SD / Minimum temperature for site B, MEAN ± SD: mean of 15 subjects, in °C (unit assumed); for Minimum temperature for site B, MEAN ± SD / Minimum temperature for site B: site B (forearm, different from A)
From the text: (§1) Tables 1 and 5 describe the experimental conditions in accordance with the procedural steps described above. The only difference between Table 1 and Table 5 and between Study 1 and Study 2 is that in Study 1 the spray time was five seconds, whereas in Study 2 the spray time was 3 seconds.
(§2) Tables 2 and 6 describe the subjects chosen including their normal skin temperature, the sex, race, age, weight and height of the subjects.

[2] = test system: skin (site on the subject's forearm); assay: Study 1: minimum skin temperature after spraying coolant for 5 seconds from 12 inches; assay type: in vivo, human; conditions: spray time 5 seconds; for Minimum temperature for site A, MEAN ± STANDARD DEVIATION / Minimum temperature for site A: site A (forearm); for Minimum temperature for site A, MEAN ± STANDARD DEVIATION / Minimum temperature for site B, MEAN ± STANDARD DEVIATION: mean of 5 subjects, in °C (unit assumed); for Minimum temperature for site B, MEAN ± STANDARD DEVIATION / Minimum temperature for site B: site B (forearm, different from A)
Procedure: as §1, with “seconds. Comparison is made between various coolants including ethylchloride at room temperature, ethylchloride at 11° C., Fluorimethane® at room temperature, Fuorimethane® at 11° C. and mixtures of HFC 152a and HFC 134a.” for “seconds.”
as §2

[3] = subject code 1, in °C (unit assumed)
[4] = subject code 2, in °C (unit assumed)
[5] = subject code 3, in °C (unit assumed)
[6] = subject code 4, in °C (unit assumed)
[7] = subject code 5, in °C (unit assumed)
[8] = subject code 6, in °C (unit assumed)
[9] = subject code 7, in °C (unit assumed)
[10] = subject code 8, in °C (unit assumed)
[11] = subject code 9, in °C (unit assumed)
[12] = subject code 10, in °C (unit assumed)
[13] = subject code 11, in °C (unit assumed)
[14] = subject code 12, in °C (unit assumed)
[15] = subject code 13, in °C (unit assumed)
[16] = subject code 14, in °C (unit assumed)
[17] = subject code 15, in °C (unit assumed)
[18] = subject 1, in °C (unit assumed)
[19] = subject 2, in °C (unit assumed)
[20] = subject 3, in °C (unit assumed)
[21] = subject 4, in °C (unit assumed)
[22] = subject 5, in °C (unit assumed)

CCCl [ECC, Ethyl chloride]
Minimum temperature for site A, MEAN ± SD [1]: −16.12 ± 2.13 | Minimum temperature for site A [1, 3]: −17.89 | Minimum temperature for site A [1, 4]: −17.54 | Minimum temperature for site A [1, 5]: −14.82 | Minimum temperature for site A [1, 6]: −13.46 | Minimum temperature for site A [1, 7]: −17.04 | Minimum temperature for site A [1, 8]: −17.18 | Minimum temperature for site A [1, 9]: −13.22 | Minimum temperature for site A [1, 10]: −13.10 | Minimum temperature for site A [1, 11]: −18.11 | Minimum temperature for site A [1, 12]: −17.63 | Minimum temperature for site A [1, 13]: −15.56 | Minimum temperature for site A [1, 14]: −17.00 | Minimum temperature for site A [1, 15]: −13.13 | Minimum temperature for site A [1, 16]: −16.26 | Minimum temperature for site A [1, 17]: −19.80 | Minimum temperature for site B, MEAN ± SD [1]: −15.54 ± 3.33 | Minimum temperature for site B [1, 3]: −12.79 | Minimum temperature for site B [1, 4]: −17.73 | Minimum temperature for site B [1, 5]: −11.70 | Minimum temperature for site B [1, 6]: −16.21 | Minimum temperature for site B [1, 7]: −15.84 | Minimum temperature for site B [1, 8]: −15.32 | Minimum temperature for site B [1, 9]: −10.04 | Minimum temperature for site B [1, 10]: −20.86 | Minimum temperature for site B [1, 11]: −16.69 | Minimum temperature for site B [1, 12]: −18.07 | Minimum temperature for site B [1, 13]: −18.65 | Minimum temperature for site B [1, 14]: −10.58 | Minimum temperature for site B [1, 15]: −12.08 | Minimum temperature for site B [1, 16]: −17.86 | Minimum temperature for site B [1, 17]: −18.69 | Minimum temperature for site A, MEAN ± STANDARD DEVIATION [2]: −15.59 ± 2.50 | Minimum temperature for site A [2, 18]: −15.80 | Minimum temperature for site A [2, 19]: −11.32 | Minimum temperature for site A [2, 20]: −17.81 | Minimum temperature for site A [2, 21]: −16.19 | Minimum temperature for site A [2, 22]: −16.84 | Minimum temperature for site B, MEAN ± STANDARD DEVIATION [2]: −18.41 ± 1.92 | Minimum temperature for site B [2, 18]: −19.22 | Minimum temperature for site B [2, 19]: −15.56 | Minimum temperature for site B [2, 20]: −18.71 | Minimum temperature for site B [2, 21]: −17.80 | Minimum temperature for site B [2, 22]: −20.75

CCCl [EC, Ethyl chloride]
Minimum temperature for site A, MEAN ± SD [1]: −15.70 ± 1.56 | Minimum temperature for site A [1, 3]: −16.93 | Minimum temperature for site A [1, 4]: −14.64 | Minimum temperature for site A [1, 5]: −13.78 | Minimum temperature for site A [1, 6]: −14.86 | Minimum temperature for site A [1, 7]: −15.34 | Minimum temperature for site A [1, 8]: −14.75 | Minimum temperature for site A [1, 9]: 16.70 | Minimum temperature for site A [1, 10]: −18.76 | Minimum temperature for site A [1, 11]: −15.46 | Minimum temperature for site A [1, 12]: −16.53 | Minimum temperature for site A [1, 13]: −14.68 | Minimum temperature for site A [1, 14]: −13.59 | Minimum temperature for site A [1, 15]: −14.52 | Minimum temperature for site A [1, 16]: −16.62 | Minimum temperature for site A [1, 17]: −18.45 | Minimum temperature for site B, MEAN ± SD [1]: −15.92 ± 2.01 | Minimum temperature for site B [1, 3]: −17.99 | Minimum temperature for site B [1, 4]: −17.03 | Minimum temperature for site B [1, 5]: −13.60 | Minimum temperature for site B [1, 6]: −16.89 | Minimum temperature for site B [1, 7]: −15.33 | Minimum temperature for site B [1, 8]: −12.73 | Minimum temperature for site B [1, 9]: −15.93 | Minimum temperature for site B [1, 10]: −18.79 | Minimum temperature for site B [1, 11]: −12.08 | Minimum temperature for site B [1, 12]: −14.03 | Minimum temperature for site B [1, 13]: −18.32 | Minimum temperature for site B [1, 14]: −16.52 | Minimum temperature for site B [1, 15]: 16.48 | Minimum temperature for site B [1, 16]: −16.02 | Minimum temperature for site B [1, 17]: −17.12 | Minimum temperature for site A, MEAN ± STANDARD DEVIATION [2]: −14.93 ± 2.45 | Minimum temperature for site A [2, 18]: −13.22 | Minimum temperature for site A [2, 19]: −16.87 | Minimum temperature for site A [2, 20]: −17.56 | Minimum temperature for site A [2, 21]: −11.72 | Minimum temperature for site A [2, 22]: −15.26 | Minimum temperature for site B, MEAN ± STANDARD DEVIATION [2]: −16.40 ± 0.77 | Minimum temperature for site B [2, 18]: −16.87 | Minimum temperature for site B [2, 19]: −15.78 | Minimum temperature for site B [2, 20]: −15.73 | Minimum temperature for site B [2, 21]: −16.12 | Minimum temperature for site B [2, 22]: −17.50
